Drawing on patent US9156872B2, “2′-azido substituted nucleoside derivatives and methods of use thereof for the treatment of viral diseases” (priority 2011, dated 2015), this text covers EC50 for 39 compounds.

What is called EC50 is the midpoint of the concentration-response curve.

In the first test the test system is HCV replicon cells. In words: Cell-based HCV replicon assay (replicon RNA by Taqman real time PCR). To be noted: Hepatitis C virus, 72 h, read-out: 1b EC50.
On to `COc1nc(N)nc2c1ncn2[C@@H]1O[C@H](COP(=O)(N[C@@H](C)C(=O)OC(C)C)Oc2ccc(F)cc2)[C@@H](O)[C@@]1(C)N=[N+]=[N-]` (single isomer, unassigned) [Compound 269], for which the concentration for a half-maximal effect (EC50) amounted to 700 nM.

Consider `COc1nc(N)nc2c1ncn2[C@@H]1O[C@H](COP(=O)(N[C@@H](C)C(=O)OC2CCCCC2)Oc2ccc(Cl)cc2)[C@@H](O)[C@@]1(C)N=[N+]=[N-]` (single isomer, unassigned) [Compound 272], for which the EC50 was 3700 nM.

In the case of `COc1nc(N)nc2c1ncn2[C@@H]1O[C@H](COP(=O)(N[C@@H](C)C(=O)OCC(C)C)Oc2ccccc2)C(O)[C@@]1(C)N=[N+]=[N-]` (single isomer, unassigned) [Compound 276], the EC50 is 2700 nM.

Take `COc1nc(N)nc2c1ncn2[C@@H]1O[C@H](COP(=O)(N[C@@H](C)C(=O)OC(C)C)Oc2ccc(Cl)c(Cl)c2)[C@@H](O)[C@@]1(C)N=[N+]=[N-]` (single isomer, unassigned) [Compound 282]: the EC50 amounted to 5000 nM.

As for `CCCOC(=O)[C@H](C)NP(=O)(OC[C@H]1O[C@@H](n2cnc3c(OC)nc(N)nc32)[C@](C)(N=[N+]=[N-])C1O)Oc1ccccc1` (single isomer, unassigned) [Compound 287], the EC50 was found to be 900 nM.

Take `COc1nc(N)nc2c1ncn2[C@@H]1O[C@H](COP(=O)(N[C@@H](C)C(=O)OC(C)C)Oc2ccc(Cl)cc2)[C@@H](O)[C@@]1(C)N=[N+]=[N-]` (single isomer, unassigned) [Compound 293]: the EC50 came out at 5700 nM.

Take `COc1nc(N)nc2c1ncn2[C@@H]1O[C@H](COP(=O)(N[C@@H](C)C(=O)OCC(C)C)Oc2ccc(Cl)cc2)[C@@H](O)[C@@]1(C)N=[N+]=[N-]` (single isomer, unassigned) [Compound 295]: the concentration for a half-maximal effect (EC50) stood at 200 nM.

`CCCCOC(=O)[C@H](C)NP(=O)(OC[C@H]1O[C@@H](n2cnc3c(OC)nc(N)nc32)[C@](C)(N=[N+]=[N-])C1O)Oc1cccc2ccccc12` (single isomer, unassigned) [Compound 297]: the EC50 turned out to be 100 nM.

Regarding `C[C@H](NP(=O)(OC[C@H]1O[C@@H](n2ccc(=O)[nH]c2=O)[C@](C)(N=[N+]=[N-])[C@@H]1O)Oc1ccccc1)C(=O)O[C@H](C)c1ccccc1` (single isomer, unassigned) [Compound 302], the concentration for a half-maximal effect (EC50) was determined as 24900 nM.

For the compound `CCOc1nc(N)nc2c1ncn2[C@@H]1O[C@H](COP(=O)(N[C@@H](C)C(=O)OC)Oc2ccccc2Cl)[C@@H](O)[C@@]1(C)N=[N+]=[N-]` (single isomer, unassigned) [Compound 309], the EC50 turned out to be 570 nM.

As for `CCOc1nc(N)nc2c1ncn2[C@@H]1O[C@H](COP(=O)(N[C@@H](C)C(=O)OC2CCCCC2)Oc2ccc(Cl)cc2)[C@@H](O)[C@@]1(C)N=[N+]=[N-]` (single isomer, unassigned) [Compound 313], the EC50 worked out at 660 nM.

Staying with this test, now noted: read-out: 1b EC50.
Turning to `CCOC(=O)[C@H](C)NP(=O)(OC[C@H]1O[C@@H](n2cnc3c(OC)nc(N)nc32)[C@](C)(N=[N+]=[N-])[C@@H]1O)Oc1ccc(F)cc1` (single isomer, unassigned) [Compound 270], the half-maximal effective concentration (EC50) was determined as 1800 nM.

For `CCOC(=O)[C@H](C)NP(=O)(OC[C@H]1O[C@@H](n2cnc3c(OC)nc(N)nc32)[C@](C)(N=[N+]=[N-])[C@@H]1O)Oc1ccc(F)cc1` (single isomer, unassigned) [Compound 271], the concentration for a half-maximal effect (EC50) was 4400 nM.

`COc1nc(N)nc2c1ncn2[C@@H]1O[C@H](COP(=O)(N[C@@H](C)C(=O)OC2CCCCC2)Oc2ccc(Cl)cc2)[C@@H](O)[C@@]1(C)N=[N+]=[N-]` (single isomer, unassigned) [Compound 273]: the EC50 was found to be 2800 nM.

Consider `COc1nc(N)nc2c1ncn2[C@@H]1O[C@H](COP(=O)(N[C@@H](C)C(=O)OC2CCCCC2)Oc2ccccc2)[C@@H](O)[C@@]1(C)N=[N+]=[N-]` (single isomer, unassigned) [Compound 274], for which the EC50 came out at 8700 nM.

With `COc1nc(N)nc2c1ncn2[C@@H]1O[C@H](COP(=O)(N[C@@H](C)C(=O)OC2CCCCC2)Oc2ccccc2)[C@@H](O)[C@@]1(C)N=[N+]=[N-]` (single isomer, unassigned) [Compound 275], the half-maximal effective concentration (EC50) is 1500 nM.

With `COc1nc(N)nc2c1ncn2[C@@H]1O[C@H](COP(=O)(N[C@@H](C)C(=O)OCC(C)C)Oc2ccccc2)C(O)[C@@]1(C)N=[N+]=[N-]` (single isomer, unassigned) [Compound 277], the EC50 is 2700 nM.

For `COc1nc(N)nc2c1ncn2[C@@H]1O[C@H](COP(=O)(N[C@@H](C)C(=O)OCc2ccccc2)Oc2ccccc2)[C@@H](O)[C@@]1(C)N=[N+]=[N-]` (single isomer, unassigned) [Compound 278], the EC50 worked out at 7300 nM.

`COc1nc(N)nc2c1ncn2[C@@H]1O[C@H](COP(=O)(N[C@@H](C)C(=O)OCc2ccccc2)Oc2ccccc2)[C@@H](O)[C@@]1(C)N=[N+]=[N-]` (single isomer, unassigned) [Compound 279]: the EC50 is 1000 nM.

With `COc1nc(N)nc2c1ncn2[C@@H]1O[C@H](COP(=O)(N[C@@H](C)C(=O)OC(C)C)Oc2ccccc2Cl)[C@@H](O)[C@@]1(C)N=[N+]=[N-]` (single isomer, unassigned) [Compound 280], the EC50 was determined as 5000 nM.

As for `COc1nc(N)nc2c1ncn2[C@@H]1O[C@H](COP(=O)(N[C@@H](C)C(=O)OC(C)C)Oc2ccccc2Cl)[C@@H](O)[C@@]1(C)N=[N+]=[N-]` (single isomer, unassigned) [Compound 281], the EC50 worked out at 12000 nM.

For `COc1nc(N)nc2c1ncn2[C@@H]1O[C@H](COP(=O)(N[C@@H](C)C(=O)OC(C)C)Oc2ccc(Cl)c(Cl)c2)[C@@H](O)[C@@]1(C)N=[N+]=[N-]` (single isomer, unassigned) [Compound 283], the EC50 was 8400 nM.

For the compound `CCCOC(=O)[C@H](C)NP(=O)(OC[C@H]1O[C@@H](n2cnc3c(OC)nc(N)nc32)[C@](C)(N=[N+]=[N-])C1O)Oc1ccccc1` (single isomer, unassigned) [Compound 288], the EC50 is 900 nM.

`CCOC(=O)[C@H](C)NP(=O)(OC[C@H]1O[C@@H](n2cnc3c(OC)nc(N)nc32)[C@](C)(N=[N+]=[N-])[C@@H]1O)Oc1ccc(Cl)cc1` (single isomer, unassigned) [Compound 289]: the EC50 came to 700 nM.

Regarding `CCOC(=O)[C@H](C)NP(=O)(OC[C@H]1O[C@@H](n2cnc3c(OC)nc(N)nc32)[C@](C)(N=[N+]=[N-])[C@@H]1O)Oc1ccc(Cl)cc1` (single isomer, unassigned) [Compound 290], the EC50 was found to be 800 nM.

In the case of `COc1nc(N)nc2c1ncn2[C@@H]1O[C@H](COP(=O)(N[C@@H](C)C(=O)OCC(C)(C)C)Oc2ccccc2)C(O)[C@@]1(C)N=[N+]=[N-]` (single isomer, unassigned) [Compound 291], the concentration giving a half-maximal response (EC50) stood at 2400 nM.

Regarding `COc1nc(N)nc2c1ncn2[C@@H]1O[C@H](COP(=O)(N[C@@H](C)C(=O)OCC(C)(C)C)Oc2ccccc2)C(O)[C@@]1(C)N=[N+]=[N-]` (single isomer, unassigned) [Compound 292], the EC50 was 400 nM.

As for `COc1nc(N)nc2c1ncn2[C@@H]1O[C@H](COP(=O)(N[C@@H](C)C(=O)OC(C)C)Oc2ccc(Cl)cc2)[C@@H](O)[C@@]1(C)N=[N+]=[N-]` (single isomer, unassigned) [Compound 294], the EC50 was 3400 nM.

As for `COc1nc(N)nc2c1ncn2[C@@H]1O[C@H](COP(=O)(N[C@@H](C)C(=O)OCC(C)C)Oc2ccc(Cl)cc2)[C@@H](O)[C@@]1(C)N=[N+]=[N-]` (single isomer, unassigned) [Compound 296], the EC50 amounted to 100 nM.

For the compound `CCCCOC(=O)[C@H](C)NP(=O)(OC[C@H]1O[C@@H](n2cnc3c(OC)nc(N)nc32)[C@](C)(N=[N+]=[N-])C1O)Oc1cccc2ccccc12` (single isomer, unassigned) [Compound 298], the EC50 is 100 nM.

Consider `C[C@H](NP(=O)(OC[C@H]1O[C@@H](n2ccc(=O)[nH]c2=O)[C@](C)(N=[N+]=[N-])[C@@H]1O)Oc1ccccc1)C(=O)OCc1ccccc1` (single isomer, unassigned) [Compound 300], for which the EC50 worked out at 29000 nM.

For `C[C@H](NP(=O)(OC[C@H]1O[C@@H](n2ccc(=O)[nH]c2=O)[C@](C)(N=[N+]=[N-])[C@@H]1O)Oc1ccccc1)C(=O)OCc1ccccc1` (single isomer, unassigned) [Compound 301], the concentration giving a half-maximal response (EC50) was 2700 nM.

On to `C[C@H](NP(=O)(OC[C@H]1O[C@@H](n2ccc(=O)[nH]c2=O)[C@](C)(N=[N+]=[N-])[C@@H]1O)Oc1ccccc1)C(=O)O[C@H](C)c1ccccc1` (single isomer, unassigned) [Compound 303], for which the EC50 is 46900 nM.

Turning to `CCOc1nc(N)nc2c1ncn2[C@@H]1O[C@H](COP(=O)(N[C@@H](C)C(=O)OC)Oc2ccccc2Cl)[C@@H](O)[C@@]1(C)N=[N+]=[N-]` (single isomer, unassigned) [Compound 310], the EC50 stood at 930 nM.

With `CCOc1nc(N)nc2c1ncn2[C@@H]1O[C@H](COP(=O)(N[C@@H](C)C(=O)OC)Oc2ccc(Cl)cc2)[C@@H](O)[C@@]1(C)N=[N+]=[N-]` (single isomer, unassigned) [Compound 311], the EC50 was 900 nM.

`CCOc1nc(N)nc2c1ncn2[C@@H]1O[C@H](COP(=O)(N[C@@H](C)C(=O)OC)Oc2ccc(Cl)cc2)[C@@H](O)[C@@]1(C)N=[N+]=[N-]` (single isomer, unassigned) [Compound 312]: the EC50 is 2200 nM.

As for `CCOc1nc(N)nc2c1ncn2[C@@H]1O[C@H](COP(=O)(N[C@@H](C)C(=O)OC2CCCCC2)Oc2ccc(Cl)cc2)[C@@H](O)[C@@]1(C)N=[N+]=[N-]` (single isomer, unassigned) [Compound 314], the half-maximal effective concentration (EC50) was 1300 nM.

`CCOc1nc(N)nc2c1ncn2[C@@H]1O[C@H](COP(=O)(N[C@@H](C)C(=O)OC(C)C)Oc2ccccc2Cl)[C@@H](O)[C@@]1(C)N=[N+]=[N-]` (single isomer, unassigned) [Compound 315]: the EC50 amounted to 9200 nM.

As for `CCOc1nc(N)nc2c1ncn2[C@@H]1O[C@H](COP(=O)(N[C@@H](C)C(=O)OC(C)C)Oc2ccccc2Cl)[C@@H](O)[C@@]1(C)N=[N+]=[N-]` (single isomer, unassigned) [Compound 316], the 50% effective concentration (EC50) turned out to be 27900 nM.
